Measurements taken from publication PMC9257893 (The Onderstepoort Journal of Veterinary Research, 2022).
Values joined by “and” are separate entries in the source; they are usually repeats but may differ in a detail not shown here. Equal entries are not always repeated. Where two headings read alike, the source gives them in different places.

How the values were obtained:
[1] = design: method as in Naidoo et al. [2007]; settings: Cape Griffon Vulture; ref Naidoo et al. [2007]; cited from earlier work
[2] = Diclofenac plasma pharmacokinetics in chickens after IV dosing (HPLC, non-compartmental); settings: for AUC(0-inf): AUCinf; for AUC(0-t): AUClast
Protocol: Birds still alive after 15 days were terminated by sedation and carbon dioxide asphyxiation.
Scheduled and unscheduled deaths were submitted to the University of Pretoria Paraclinical Department, section of veterinary pathology, for full gross and histological evaluation. Where needed, samples were collected in 10% buffered formalin, sectioned and stained via haematoxylin & eosin (H&E) technique and subjected to histopathologic examination.
Samples were analysed at the University of Pretoria, Veterinary, Paraclinical Department, toxicology and pharmacology laboratory. […] In short, 200 μL of plasma was placed in a 2-mL tube, followed sequentially by 400 μL of diethyl ether and 400 μL of potassium dihydrogen phosphate (0.3 M and pH 3.5). […] The separated organic phase was dried under nitrogen flow at 50 °C until dry.
For analysis, 30 μL was injected at […], and detection at 275 nm.
Concentration-time data generated following HPLC analysis was dose equalised to 1 mg/kg and evaluated by non-compartmental modelling (Kinetica 5.1, Thermo Scientific). The pharmacokinetic parameters maximum plasma concentration (Cmax) and time to maximum plasma concentration (Tmax) were read off the curve.
Area under the plasma curve extrapolated to infinity was calculated as: • AUCinf=AUClast+AUCextra, [Eqn 3] where AUCextra=Clast/β,Clast
is the last measured concentration and β is the terminal elimination portion of the curve gradient, on a natural logarithmic scale.
The half-life of elimination (T1/2) was calculated as: • T1/2=Ln 2/β. [Eqn 4]
Whole plasma clearance (Cl) was calculated as: • Cl=Dose/AUClast. [Eqn 5]
Volume of distribution (Vd) was calculated as: • Vd=Dose/CP0, [Eqn 6] where CP0 was the calculated concentration at time 0.
The mean residence time (MRT) was calculated as: • MRT=Dose Cp0/β. [Eqn 7]

[3] = pigeon; cited from earlier work
[4] = design: method as in Naidoo et al. [2007]; settings: African White-backed Vulture; ref Naidoo et al. [2007]; cited from earlier work
[5] = Gyps vultures; cited from earlier work
[6] = in vivo, iv, 1 mg/kg, control group (diclofenac IV alone), birds alive, GM, dose corrected to 1 mg/kg
[7] = in vivo, iv, 1 mg/kg, control group (diclofenac IV alone), birds dead, GM, dose corrected to 1 mg/kg
[8] = in vivo, iv, test group (fluconazole + diclofenac IV), birds alive, GM, dose corrected to 1 mg/kg
[9] = test group (fluconazole + diclofenac IV), birds alive, GM, dose corrected to 1 mg/kg
[10] = test group (fluconazole + diclofenac IV), birds dead, GM, dose corrected to 1 mg/kg

In the case of `O=C(O)Cc1ccccc1Nc1c(Cl)cccc1Cl` [diclofenac, diclofenac sodium], the MRT [1] is listed as 15.11 h, the T1/2 [1] is listed as 12.24 h and the Cmax ([2]; chicken (Gallus gallus domesticus), in vivo, iv, mean Cmax, mean value stated in text, chickens, IV diclofenac) is listed as 510 ng/mL. For the same compound, the Tmax ([2]; chicken (Gallus gallus domesticus), in vivo, iv, mean Tmax, mean value stated in text, chickens, IV diclofenac) was 0.38 h, the “Lz (terminal elimination phase rate constant)” value (“Lz” for short) ([2]; control group (diclofenac IV alone), birds alive, GM) was 0.88 h⁻¹ and the AUMClast ([2]; control group (diclofenac IV alone), birds alive, GM, dose corrected to 1 mg/kg) was 0.35 μg/mL*(h)^2. The “Lz” value ([2]; control group (diclofenac IV alone), birds dead, GM) was 0.34 h⁻¹, the AUMClast ([2]; control group (diclofenac IV alone), birds dead, GM, dose corrected to 1 mg/kg) was 0.27 μg/mL*(h)^2 and the “T1/2 of individual birds” value ([2]; control group birds receiving the two highest doses) was 7.01 h and 2.75 h. The AUC(0-inf) [2, 6] was 570 ng·h/mL, the AUC(0-inf) [2, 7] was 760 ng·h/mL and the AUC(0-t) [2, 6] was 460 ng·h/mL. It also gave an AUC(0-t) [2, 7] of 310 ng·h/mL, a Cmax ([2]; in vivo, iv, 1 mg/kg, Cmax, control group (diclofenac IV alone), birds alive, GM, dose corrected to 1 mg/kg) of 520 ng/mL and a Cmax ([2]; in vivo, iv, 1 mg/kg, Cmax, control group (diclofenac IV alone), birds dead, GM, dose corrected to 1 mg/kg) of 240 ng/mL. It also gave an AUC(0-inf) [2, 8] of 550 ng·h/mL, an AUC(0-inf) ([2]; in vivo, iv, test group (fluconazole + diclofenac IV), birds dead, GM, dose corrected to 1 mg/kg) of 1130 ng·h/mL and an AUC(0-t) ([2]; in vivo, iv, geometric mean, control group, all birds) of 400 ng·h/mL. It also gave an AUC(0-t) ([2]; in vivo, iv, geometric mean, test group (CYP inhibitor), all birds) of 500 ng·h/mL, an AUC(0-t) [2, 8] of 420 ng·h/mL and a clearance ([2]; in vivo, iv, Cl, control group (diclofenac IV alone), birds alive, GM) of 29 mL/min/kg. It also gave a clearance ([2]; in vivo, iv, Cl, control group (diclofenac IV alone), birds dead, GM) of 22 mL/min/kg, a clearance ([2]; in vivo, iv, Cl, test group (fluconazole + diclofenac IV), birds alive, GM) of 30.5 mL/min/kg and a clearance ([2]; in vivo, iv, Cl, test group (fluconazole + diclofenac IV), birds dead, GM) of 14.7 mL/min/kg. For the same compound, the Cmax ([2]; in vivo, iv, Cmax, geometric mean, control group, all birds) was 410 ng/mL, the Cmax ([2]; in vivo, iv, Cmax, geometric mean, test group (CYP inhibitor), all birds) was 610 ng/mL and the Cmax ([2]; in vivo, iv, Cmax, test group (fluconazole + diclofenac IV), birds dead, GM, dose corrected to 1 mg/kg) was 1240 ng/mL. For the same compound, the MRT ([2]; in vivo, iv, control group (diclofenac IV alone), birds alive, GM) was 1.17 h, the MRT ([2]; in vivo, iv, control group (diclofenac IV alone), birds dead, GM) was 3.14 h and the MRT ([2]; in vivo, iv, test group (fluconazole + diclofenac IV), birds alive, GM) was 1.34 h. It also gave an MRT ([2]; in vivo, iv, test group (fluconazole + diclofenac IV), birds dead, GM) of 1.33 h, a half-life ([2]; in vivo, iv, T1/2, control group (diclofenac IV alone), birds alive, GM) of 0.79 h and a half-life ([2]; in vivo, iv, T1/2, test group (fluconazole + diclofenac IV), birds alive, GM) of 0.85 h. The half-life ([2]; in vivo, iv, T1/2, test group (fluconazole + diclofenac IV), birds dead, GM) was 0.96 h, the Tmax ([2]; in vivo, iv, Tmax, control group (diclofenac IV alone), birds alive, GM) was 0.4 h and the Tmax ([2]; in vivo, iv, Tmax, control group (diclofenac IV alone), birds dead, GM) was 0.4 h. The Tmax ([2]; in vivo, iv, Tmax, test group (fluconazole + diclofenac IV), birds alive, GM) was 0.35 h, the Tmax ([2]; in vivo, iv, Tmax, test group (fluconazole + diclofenac IV), birds dead, GM) was 0.25 h and the Vd ([2]; in vivo, iv, Vss, control group (diclofenac IV alone), birds alive, GM) was 2.04 L/kg. For the same compound, the Vd ([2]; in vivo, iv, Vss, control group (diclofenac IV alone), birds dead, GM) was 4.16 L/kg, the Vd ([2]; in vivo, iv, Vss, test group (fluconazole + diclofenac IV), birds alive, GM) was 2.44 L/kg and the Vd ([2]; in vivo, iv, Vss, test group (fluconazole + diclofenac IV), birds dead, GM) was 1.17 L/kg. It also gave a Vd ([2]; in vivo, iv, Vz, control group (diclofenac IV alone), birds alive, GM) of 1.98 L/kg, a Vd ([2]; in vivo, iv, Vz, control group (diclofenac IV alone), birds dead, GM) of 3.88 L/kg and a Vd ([2]; in vivo, iv, Vz, test group (fluconazole + diclofenac IV), birds alive, GM) of 2.24 L/kg. It also gave a Vd ([2]; in vivo, iv, Vz, test group (fluconazole + diclofenac IV), birds dead, GM) of 1.23 L/kg, a clearance ([2]; in vivo, iv, clearance, geometric mean, control group, all birds) of 26.5 mL/min/kg and a clearance ([2]; in vivo, iv, clearance, geometric mean, test group (CYP inhibitor), all birds) of 25.3 mL/min/kg. For the same compound, the “Lz” value ([2]; test group (fluconazole + diclofenac IV), birds alive, GM) was 0.82 h⁻¹, the AUMClast [2, 9] was 0.34 μg/mL*(h)^2 and the Cmax [2, 9] was 480 ng/mL. For the same compound, the “Lz” value ([2]; test group (fluconazole + diclofenac IV), birds dead, GM) was 0.72 h⁻¹, the AUClast [2, 10] was 870 ng·h/mL and the AUMClast [2, 10] was 0.63 μg/mL*(h)^2. For the same compound, the T1/2 [3] was < 7 h, the MRT [4] was 26.10 h and the T1/2 [4] was 16.78 h. For the same compound, the T1/2 [5] was > 7 h.
